# From patent US8575097B2, “Exendin variant and conjugate thereof” (Pegbio Co., Ltd., priority 2009, dated 2013)
# Experiment: Effect on body weight of guinea pigs (Example 23)
# Assay type: in vivo, guinea pig
# Settings: 4 days after two successive dosing, 100 μg/kg s.c. (albumin 80 mg/kg), compared with saline group
# From the text: 44 male healthy guinea pigs were provided, and the body weight of each guinea pig was about 300 g.
substance,measurement,value
"chicken ovalbumin [chicken ovalbumin, albumin group in the guinea pig allergy test]",decrease of body weight,did not decrease
